In patent publication US12168671B2, “Phosphohistidine mimetics and antibodies to same” (The Trustees of Princeton University, priority 2013, dated 2024):

Experiment: second pKa from 31P shift
Type: physicochemical
Source text: This means that both the pPye and pHis have the same charge state at physiological pH. Since the pKa2 of pHis is […], both of the phosphate group oxygen atoms in pHis will be depronated. For pPye, the doubly deprotonated state will be favored at physiological pH (pH 7.4), well mimicking pHis.

## NCCn1cc(P(=O)(O)O)cn1 [pPye]
  pKa: ~6.7
